# Reference: PMC12040169 (PLOS Biology, 2025)
# Experiment: in vitro
# Conditions: human, hela cells, % viability
row,SMILES,"viability at 28.5 h, 10 µM"
1,O=C(O)c1ccc(/C=N/Nc2nc(N3CCOCC3)nc(N3CCOCC3)n2)cc1 [CBK262433],99%
2,COc1ccc(NCc2cc(=O)oc3cc4c(cc23)CCC4)cn1 [CBK235362],88%
3,Cc1ccc([N+](=O)[O-])cc1NC(=O)CSc1nnc(Cc2ccccc2)o1 [CBK265889],116%
4,Cc1cc(C(=O)NCc2ccccc2)n[nH]1 [CBK200198],95.7%
5,O=C(O)[C@H]1CN(C(=O)c2cccs2)C[C@@H]1c1ccc(F)cc1 [CBK283734],98.1%
6,CC(C)c1ccc(S(=O)(=O)Nc2ccc(OC(F)F)cc2)cc1 [CBK044565],87.8%
7,Cc1[nH]c2ccccc2c1C(=O)CSc1nccn1Cc1ccccc1 [CBK297905],76.6%
8,Cc1ccc(-c2nn(CCC#N)cc2C(=O)N2CCOCC2)cc1C [CBK305940],96.7%
9,Cn1c(-c2ccc(-c3nc4cnccc4n3C)cc2)nc2cnccc21 [CBK261423],106%
10,COc1ccc(CN2CCC(N3CCN(c4ccccc4F)CC3)CC2)cc1OCc1ccccc1 [CBK264720G],105%
11,CCOC(=O)c1cnc(Nc2nc3ccccc3o2)nc1CSc1ncccn1 [CBK268885],103%
12,O=C(CCS(=O)(=O)c1ccc(Br)cc1)OCC(=O)c1ccccc1 [CBK021886],104%
13,Cc1cccc(Nc2ncnc3ccccc23)c1 [CBK072827],114%
14,CC(C)(C)C(=O)Nc1nnc(SCC(=O)N2CCc3ccccc32)s1 [CBK004889],83.5%
15,CCn1cc(CN2CCCN(C(=O)c3cc(Cl)c[nH]3)CC2)cn1 [CBK306153],90.6%
16,NC(=O)c1c(NC(=O)CCN2C(=O)c3cccc([N+](=O)[O-])c3C2=O)sc2c1CCCC2 [CBK263132],105%
17,N#C/C(=C\Nc1ccc(S(N)(=O)=O)cc1)c1nc(-c2cc3c(ccc4ccccc43)oc2=O)cs1 [CBK262376],105%
18,Cc1cc(C(=O)N2CCN3C(=O)CCC32C)c(C2CC2)o1 (centres unmarked) [CBK282092],97.6%
19,O=[N+]([O-])c1cccc(S(=O)(=O)NCCSc2ccccc2)c1 [CBK267862],94.1%
20,Cc1ccc(C(=O)NC2CCCC2)cn1 [CBK200117],91.6%
21,O=C(Nc1cc(N2CCNCC2)c2occc2c1)c1cccc(C(F)(F)F)c1 [CBK061762C],86.5%
22,CN(Cc1ccc(Cl)c(F)c1)C(=O)c1cn[nH]c1C1CCCCN1 (centres unmarked) [CBK304742],103%

row,SMILES,"viability at 28.5 h, 10 µM"
1,Cc1cccc(C)c1NC(=O)Cn1c(SCC(N)=O)nc2ccccc21 [CBK266684],106%
2,NC12CC(=O)CC(CC(c3ccccc3)C1)C2 (centres unmarked) [CBK010323C],114%
3,O=C(Nc1ccc(C(=O)O)cc1)/C(=C\c1ccco1)NC(=O)c1ccccc1Cl [CBK263726],113%
4,c1ccc2c(c1)OCC(COc1cncc(N3CCNCC3)n1)O2 (centres unmarked) [CBK172357G],101%
5,CCCn1c(=N)n(CCOc2cccc(C)c2)c2ccccc21 [CBK264746B],89.2%
6,CC(C)(C)OC(=O)N1CCC(Oc2ccc(CN)cc2)CC1 [CBK004131],81.7%
7,O=C(COc1cccc([N+](=O)[O-])c1)Nc1cc(C(=O)O)cc(C(=O)O)c1 [CBK263604],114%
8,Cc1ccsc1CN1CCOCC1 [CBK026429],110%
9,CCNC(=O)N1CC2(CCN(CCn3cccc3)CC2)c2ccccc21 [CBK143945],93%
10,CCOC(=O)c1cnc(SC)nc1NCCc1c[nH]c2cc(F)ccc12 [CBK092315],96%
11,Nc1cc2ccccc2c(-c2cc(F)cc(F)c2)n1 [CBK085711],97%
12,Cc1csc(-c2cn3ccnc3c(N(C)CCN(C)C)n2)c1 [CBK066553],96.3%
13,Cc1ccc(S(=O)(=O)Nc2ccc(Nc3cc(-c4ccc(CNC(=O)OC(C)(C)C)cc4)ncn3)cc2)cc1 [CBK090967],96.8%
14,NS(=O)(=O)c1ccc(Cn2c(=O)[nH]c3ncc(-c4ccco4)nc32)cc1 [CBK064948],96.8%
15,COC(=O)c1ccc(S(=O)(=O)N2CCC(C)CC2)cc1 [CBK070414],98.1%
16,O=C(O)C1CCC(CNC(=O)C2Cc3ccccc3CN2)CC1 (centres unmarked) [CBK286745],84.6%
17,CCc1cccc(CC)c1NC(=O)CC1SC(NCc2ccc(C)cc2)=NC1=O (centres unmarked) [CBK059431],118%
18,Cc1cnn(CC(=O)NC(C)c2cc3cc(Cl)ccc3o2)c1 (centres unmarked) [CBK281447],90.2%
19,O=S(=O)(Nc1cccc2[nH]ccc12)c1ccc(F)cc1 [CBK153522],60.9%
20,Cc1sc(NC(=S)NC(=O)c2ccco2)c(C(N)=O)c1C [CBK266272],98.9%
21,Nc1ncc(-c2cccc3ncccc23)nc1N1CCC[C@@H]1CO [CBK063441],105%
22,Cn1c(N)c(C(=O)NCC2CCCO2)c2nc3ccccc3nc21 (centres unmarked) [CBK269342],96.8%

row,SMILES,"viability at 28.5 h, 10 µM"
1,O=C(Nc1ccccn1)c1nccnc1-c1ccc(COc2ccccc2)cc1 [CBK050835],86.1%
2,Nc1nc(OCCc2cccs2)cnc1-c1ccc(OC(F)(F)F)cc1 [CBK145116],92.7%
3,Cc1c(C)n(Cc2ccccc2)c2ccc(C(=O)OCCCN(C)C)cc12 [CBK087693],91.7%
4,CC1=CC(C)C(CN2CC34C=CC(O3)C(C(=O)O)C4C2=O)C(C)C1 (centres unmarked) [CBK287005],96.1%
5,O=C(c1ccc2ncccc2c1)N1CCc2ccccc21 [CBK200403],81.8%
6,Cc1ccc(-c2n[nH]c(=S)n2CCC(=O)NCc2ccc(-c3csc(C)n3)s2)cc1 [CBK297924],84.5%
7,Cc1ccc(Cn2c(=N)n(CC(=O)c3ccc(Br)cc3)c3ccccc32)cc1 [CBK262979B],94%
8,CCc1ncsc1C(=O)NC1CCCN(c2ccn(C)n2)C1=O (centres unmarked) [CBK306498],104%
9,C[C@@H](c1ccccc1)n1c(=O)[nH]c2ncc(-c3cccc(-c4ccccc4)c3)nc21 [CBK064192],88.8%
10,Nc1nc(Cl)c2ncn([C@@H]3O[C@H](CO)[C@H](O)C3O)c2n1 (some centres unmarked) [CBK201291],81%
11,Cc1csc(NC(=O)C2CC(=O)N(C3CCCC3)C2)n1 (centres unmarked) [CBK175501],107%
12,CCn1c(SCC(=O)N2c3ccccc3Sc3ccccc32)nnc1C(C)Oc1ccccc1 (centres unmarked) [CBK266290],105%
13,COC(=O)c1c(NC(=O)C(Sc2ccccc2)c2ccccc2)sc2c1CCC(C(C)(C)C)C2 (centres unmarked) [CBK262603],105%
14,O=c1n(-c2cccc(C(F)(F)F)c2)ccn1S(=O)(=O)c1ccc(N2CCOCC2)nc1 [CBK106590],104%
15,COc1cc2c(cc1OC)C1c3ccccc3N(Cn3nnc4ccccc43)C(=O)N1CC2 (centres unmarked) [CBK286193],84.2%
16,COc1ccc(C(=O)CCCN2CCc3c([nH]c4ccc(OC)cc34)C2)cc1 [CBK083515T],101%
17,Cc1nc(CN2CCN(c3ccc4nnc(C(F)(F)F)n4n3)CC2)cs1 [CBK239750],95.1%
18,COC(=O)CSc1nnc(CSc2cc(C)nc(N3CCOCC3)n2)o1 [CBK007059],96.1%
19,Cc1ccccc1OCC(O)CN1CCN(CCN2C(=O)c3cccc4cccc(c34)C2=O)CC1 (centres unmarked) [CBK278321C],68.9%
20,CC(C)C(=O)Nc1cccc(NC(=O)COc2ccc(Br)cc2)c1 [CBK265211],94%
21,NS(=O)(=O)c1ccc(Nc2c(C(=O)O)cc([N+](=O)[O-])cc2[N+](=O)[O-])cc1 [CBK261319],93%
22,CCn1c(SCC(=O)NC(=O)NC2CCCCC2)nc2ccccc21 [CBK306037],93.6%

row,SMILES,"viability at 28.5 h, 10 µM"
1,COc1cc(/C=C2\SC(=S)N(c3cccc(C(=O)O)c3)C2=O)cc([N+](=O)[O-])c1O [CBK265281],96.2%
2,COc1ccc(-c2cc(C(=O)N3CCN(C(C)=O)CC3)cnc2-c2ccccc2)cn1 [CBK036637],101%
3,CSc1ccc([C@H]2[C@H](C(=O)O)CC(=O)N2Cc2ccccc2)cc1 [CBK286934],91.7%
4,Cc1ccc(O)c(Nc2ncnc3ccccc23)c1 [CBK266020C],93.2%
5,CCC(=O)N1CCC(NCc2ccc(OCC(N)=O)cc2)C(C)C1 (centres unmarked) [CBK303989],77.6%
6,Cn1nc(-c2ccc(S(=O)(=O)Nc3nc(-c4cccnc4)cs3)s2)cc1C(F)(F)F [CBK067270],88.4%
7,O=C(O)/C=C/C(=O)N(Cc1ccccn1)Cc1ccco1 [CBK286660],84.2%
8,O=C1CCCN1c1ccc(CN2CCC(O)(c3ccccc3)C2)cc1 (centres unmarked) [CBK282808],98.4%
9,O=C(c1ccc([N+](=O)[O-])cc1)n1nc(-c2cccnc2)nc1NCc1ccc(F)cc1 [CBK268962],96.6%
10,C[C@H](NC(=O)Cc1ccc(-c2ccccc2)cc1)c1nc2ccccc2[nH]1 [CBK296998],98.5%
11,O=C(N[C@H]1CCN2C(=O)c3cc(-c4ccccc4F)ccc3NC(=O)[C@@H]2C1)c1cnccn1 [CBK289558],118%
12,CC(C)COc1ccc(-c2nonc2NC(=O)c2ccccc2F)cc1 [CBK299831],86%
13,O=C(NC1CC1)[C@@H]1C=CCN1S(=O)(=O)c1ccccc1Cl [CBK285479],103%
14,CC1(C)[C@H](Cc2cc(CN3CCOCC3)on2)C[C@@H]1NC(=O)C1CC1 [CBK289246],113%
15,O=C(CC(C(=O)O)c1c[nH]c2ccccc12)c1ccc(Cl)cc1 (centres unmarked) [CBK286620],86.7%
16,Cc1nc(-c2ccccc2)sc1C(=O)C1=C(O)C(=O)N(CCN2CCOCC2)C1c1ccccc1F (centres unmarked) [CBK266511],103%
17,O=[N+]([O-])c1ccccc1S(=O)(=O)NCc1ccccn1 [CBK261751],92.6%
18,COc1ccc(OCC(=O)N2CCN(S(=O)(=O)c3ccccc3[N+](=O)[O-])CC2)cc1 [CBK264213],93.5%
19,NCC(=O)N(CCC1CCCC1)c1cccc2ccccc12 [CBK011922C],88.2%

# Same assay, conditions: human, hela cells, % viability, bulk resorufin, single well
row,SMILES,"viability at 28.5 h, 10 µM"
1,COc1ccc(Cn2nc(C(=O)Nc3nnc(C(F)(F)F)s3)c3ccccc32)cc1 [CBK047884],99.3%
